Where a SMILES comes first, the peptide text is derived from it. Bridges are numbered along the chain shown (N, C = ends). [ ]: non-standard residue; d: D form. d2Nal = N[C@H](Cc1ccc2ccccc2c1)C(=O)O; dΔPro = O=C(O)[C@H]1C=CCN1; Dap = NC[C@H](N)C(=O)O
Molecular target: T1, P-selectin (Homo sapiens, UniProt P16109)
T1 construct: P-selectin is isolated from human platelet lysates; from tissue; host or cells: human platelets (outdated platelet packs from a blood bank)
T1 sequence (P16109 42-830): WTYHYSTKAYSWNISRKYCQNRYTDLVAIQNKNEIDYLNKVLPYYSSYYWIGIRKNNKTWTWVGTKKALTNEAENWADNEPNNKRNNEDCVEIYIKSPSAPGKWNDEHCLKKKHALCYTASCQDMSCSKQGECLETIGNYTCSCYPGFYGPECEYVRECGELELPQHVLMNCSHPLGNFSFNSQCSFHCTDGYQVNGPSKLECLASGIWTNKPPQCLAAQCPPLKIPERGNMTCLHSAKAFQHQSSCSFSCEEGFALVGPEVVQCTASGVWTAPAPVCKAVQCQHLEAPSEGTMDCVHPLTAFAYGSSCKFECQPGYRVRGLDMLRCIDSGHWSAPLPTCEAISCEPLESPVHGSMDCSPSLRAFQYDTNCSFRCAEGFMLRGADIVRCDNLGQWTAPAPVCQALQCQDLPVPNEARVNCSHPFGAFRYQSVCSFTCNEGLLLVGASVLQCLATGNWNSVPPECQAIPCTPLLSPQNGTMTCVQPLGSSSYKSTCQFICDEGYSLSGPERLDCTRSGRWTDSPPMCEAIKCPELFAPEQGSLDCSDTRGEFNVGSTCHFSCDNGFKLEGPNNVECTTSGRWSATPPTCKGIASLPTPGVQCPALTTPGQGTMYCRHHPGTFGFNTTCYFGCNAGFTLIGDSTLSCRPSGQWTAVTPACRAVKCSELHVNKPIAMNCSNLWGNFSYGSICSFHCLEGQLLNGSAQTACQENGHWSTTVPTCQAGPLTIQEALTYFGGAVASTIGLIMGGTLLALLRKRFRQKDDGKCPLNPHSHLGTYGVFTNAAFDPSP
Experiment: Inhibition of human neutrophil adhesion to purified P-selectin immobilized on plastic wells
Format: cell-based
Settings: human neutrophils, purified human P-selectin
In short: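 Isolated human neutrophils (2×10^5 per well) in HBSS with Ca2+/Mg2+ and HSA added to wells coated overnight at 4° C with platelet-derived P-selectin (5 micrograms/mL), HSA-blocked; 20 min at 22° C. Nonadherent cells removed by inverted centrifugation at 150 g; adherent cells quantified by myeloperoxidase activity.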

biological activity / inhibiting neutrophil adhesion to P-selectin (result in words)	Structure (SMILES)
totally inactive	CC(C)[C@H](NC(=O)[C@H](Cc1c[nH]c2ccccc12)NC(=O)[C@@H](NC(=O)[C@H](Cc1c[nH]c2ccccc12)NC(=O)[C@@H]1CNC(=O)C[C@H](NC(=O)[C@H](CCCCN)NC(=O)[C@@H](N)CCCNC(=N)N)C(=O)NCC(=O)NCC(=O)N1)[C@@H](C)O)C(N)=O [SEQ ID NO:3, Arg-Lys-cyclo(Asp-Gly-Gly-Dap)-Trp-Thr-Trp-Val-NH2] (H-RKDGG[Dap]WTWV-NH2; lactam 3-6)

Same assay, conditions: inhibiting the binding of human neutrophils to P-selectin

Structure (SMILES)	IC50 [µM]
CC(C)[C@H](NC(=O)[C@H]1CSSC[C@@H](NC(=O)[C@@H](CCCCN)NC(=O)[C@H](N)CCCNC(=N)N)C(=O)NCC(=O)N[C@@H](Cc2ccccc2)C(=O)N1)C(=O)N[C@H](Cc1c[nH]c2ccccc12)C(=O)N[C@@H](C(=O)N[C@H](Cc1c[nH]c2ccccc12)C(N)=O)[C@H](C)O [(75)] (H-[dR][dK][dC]GF[dC]V[dW][dT][dW]-NH2; disulfide 3-6)	6
CC[C@H](C)[C@@H]1NC(=O)[C@H]([C@@H](C)CC)NC(=O)[C@H](NC(=O)[C@@H](CCCCN)NC(=O)[C@H](N)CCCNC(=N)N)CSSC[C@H](C(=O)N[C@H](Cc2c[nH]c3ccccc23)C(=O)N[C@@H](C(=O)N[C@H](Cc2c[nH]c3ccccc23)C(=O)N[C@@H](C(N)=O)C(C)C)[C@H](C)O)NC1=O [(49)] (H-[dR][dK][dC]II[dC][dW][dT][dW][dV]-NH2; disulfide 3-6)	7.1
CC(C)[C@@H](NC(=O)[C@@H](Cc1c[nH]c2ccccc12)NC(=O)[C@H](NC(=O)[C@@H](Cc1c[nH]c2ccccc12)NC(=O)[C@H]1CSSC[C@H](NC(=O)[C@@H](CCCCN)NC(=O)[C@H](N)CCCNC(=N)N)C(=O)NCC(=O)N[C@@H](Cc2ccccc2)C(=O)N1)[C@H](C)O)C(N)=O [(35)] (H-[dR][dK]CGF[dC][dW][dT][dW][dV]-NH2; disulfide 3-6)	11.6
CC[C@H](C)[C@@H]1NC(=O)[C@H](CCCCN)NC(=O)[C@@H](N)CCCCNC(=O)CC[C@@H](C(=O)N[C@@H](Cc2c[nH]c3ccccc23)C(=O)N[C@H](C(=O)N[C@@H](Cc2c[nH]c3ccccc23)C(=O)N[C@H](C(N)=O)C(C)C)[C@@H](C)O)NC(=O)CNC(=O)CNC1=O [(2)] (H-KKIGGEWTWV-NH2; lactam 1-6)	69
CC(C)[C@H](NC(=O)[C@H](Cc1c[nH]c2ccccc12)NC(=O)[C@@H](NC(=O)[C@H](Cc1c[nH]c2ccccc12)NC(=O)[C@@H]1CC(=O)NC[C@H](NC(=O)[C@H](CCCCN)NC(=O)[C@@H](N)CCCNC(=N)N)C(=O)NCC(=O)NCC(=O)N1)[C@@H](C)O)C(N)=O [(22)] (H-RK[Dap]GGDWTWV-NH2; lactam 3-6)	13
CC(C)[C@@H](NC(=O)[C@@H](Cc1c[nH]c2ccccc12)NC(=O)[C@@H](CCC(N)=O)NC(=O)[C@H](NC(=O)[C@@H](Cc1c[nH]c2ccccc12)NC(=O)[C@H]1CSSC[C@@H](NC(=O)[C@@H](CCCCN)NC(=O)[C@H](N)CCCNC(=N)N)C(=O)NCC(=O)NCC(=O)N1)[C@H](C)O)C(N)=O [(17)] (H-[dR][dK][dC]GG[dC][dW][dT][dQ][dW][dV]-NH2; disulfide 3-6)	225
CC(C)[C@@H](NC(=O)[C@@H](Cc1c[nH]c2ccccc12)NC(=O)[C@H](NC(=O)[C@@H](Cc1c[nH]cn1)NC(=O)[C@H]1CSSC[C@@H](NC(=O)[C@@H](CCCCN)NC(=O)[C@H](N)CCCNC(=N)N)C(=O)NCC(=O)N[C@@H](Cc2ccccc2)C(=O)N1)[C@H](C)O)C(N)=O [(48)] (H-[dR][dK][dC]GF[dC][dH][dT][dW][dV]-NH2; disulfide 3-6)	406
CC(=O)N[C@H](CCCCN)C(=O)N[C@@H]1CSSC[C@H](C(=O)N[C@H](Cc2c[nH]c3ccccc23)C(=O)N[C@@H](C(=O)N[C@H](Cc2c[nH]c3ccccc23)C(=O)N[C@@H](C(N)=O)C(C)C)[C@H](C)O)NC(=O)[C@H](Cc2ccc(O)cc2)NC(=O)CNC1=O [(104)] (Ac-[dK][dC]GY[dC][dW][dT][dW][dV]-NH2; disulfide 2-5)	191

Now from value to compound:

IC50 [µM]	Structure (SMILES)
267	CC(C)[C@@H](NC(=O)[C@@H](Cc1c[nH]c2ccccc12)NC(=O)[C@H](NC(=O)[C@@H](Cc1c[nH]c2ccccc12)NC(=O)[C@H]1CSSC[C@@H](NC(=O)[C@@H](CCCCN)NC(=O)[C@H](N)CCCNC(=N)N)C(=O)NCC(=O)N2CC=C[C@@H]2C(=O)N1)[C@H](C)O)C(N)=O [(36)] (H-[dR][dK][dC]G[dΔPro][dC][dW][dT][dW][dV]-NH2; disulfide 3-6)
97.8	C[C@H](O)[C@H]1NC(=O)[C@@H](Cc2c[nH]c3ccccc23)NC(=O)[C@H]2CSSC[C@@H](NC(=O)[C@H](NC(=O)[C@H](N)CCCNC(=N)N)CCCCNC(=O)CC[C@H](C(N)=O)NC(=O)[C@@H](Cc3c[nH]c4ccccc34)NC1=O)C(=O)NCC(=O)N[C@@H](Cc1ccccc1)C(=O)N2 [(105)] (H-[dR][dK][dC]GF[dC][dW][dT][dW][dE]-NH2; lactam 2-10; disulfide 3-6; N-terminus assumed)
65.4	CC(C)[C@@H](NC(=O)[C@@H](Cc1c[nH]cn1)NC(=O)[C@H](NC(=O)[C@@H](Cc1c[nH]c2ccccc12)NC(=O)[C@H]1CSSC[C@@H](NC(=O)[C@@H](CCCCN)NC(=O)[C@H](N)CCCNC(=N)N)C(=O)NCC(=O)N[C@@H](Cc2ccccc2)C(=O)N1)[C@H](C)O)C(N)=O [(61)] (H-[dR][dK][dC]GF[dC][dW][dT][dH][dV]-NH2; disulfide 3-6)
50.7	CC(C)[C@@H](NC(=O)[C@@H](Cc1ccc2ccccc2c1)NC(=O)[C@H](NC(=O)[C@@H](Cc1c[nH]c2ccccc12)NC(=O)[C@H]1CSC[C@@H](NC(=O)[C@@H](CCCCN)NC(=O)[C@H](N)CCCNC(=N)N)C(=O)NCC(=O)N[C@@H](Cc2ccccc2)C(=O)N1)[C@H](C)O)C(N)=O [(78)]
33.9	CC(C)[C@@H](NC(=O)[C@@H](Cc1c[nH]c2ccccc12)NC(=O)[C@H](NC(=O)[C@@H](Cc1c[nH]c2ccccc12)NC(=O)[C@H]1CSSC[C@@H](NC(=O)[C@@H](CCCCN)NC(=O)[C@@H](N)CCCNC(=N)N)C(=O)NCC(=O)N[C@@H](Cc2ccccc2)C(=O)N1)[C@H](C)O)C(N)=O [(101)] (H-R[dK][dC]GF[dC][dW][dT][dW][dV]-NH2; disulfide 3-6)
28.7	CC(C)[C@@H](NC(=O)[C@@H](Cc1c[nH]c2ccccc12)NC(=O)[C@@H](NC(=O)[C@@H](Cc1c[nH]c2ccccc12)NC(=O)[C@H]1CSSC[C@@H](NC(=O)[C@@H](CCCCN)NC(=O)[C@H](N)CCCNC(=N)N)C(=O)NCC(=O)N[C@@H](Cc2ccccc2)C(=O)N1)[C@@H](C)O)C(N)=O [(98)] (H-[dR][dK][dC]GF[dC][dW]T[dW][dV]-NH2; disulfide 3-6)
26.7	CC(C)[C@@H](NC(=O)[C@H](Cc1c[nH]c2ccccc12)NC(=O)[C@H](NC(=O)[C@@H](Cc1c[nH]c2ccccc12)NC(=O)[C@H]1CSSC[C@@H](NC(=O)[C@@H](CCCCN)NC(=O)[C@H](N)CCCNC(=N)N)C(=O)NCC(=O)N[C@@H](Cc2ccccc2)C(=O)N1)[C@H](C)O)C(N)=O [(96)] (H-[dR][dK][dC]GF[dC][dW][dT]W[dV]-NH2; disulfide 3-6)
23	CC[C@@H](C)[C@@H](NC(=O)[C@@H](CCCCN)NC(=O)[C@H](N)CCCNC(=N)N)C(=O)NCC(=O)N[C@@H]1CSSC[C@H](C(=O)N[C@@H](C(=O)N[C@@H](C(N)=O)C(C)C)[C@H](C)O)NC(=O)[C@@H](Cc2c[nH]c3ccccc23)NC(=O)[C@@H]([C@H](C)CC)NC1=O [(32)] (H-[dR][dK][dI]G[dC][dI][dW][dC][dT][dV]-NH2; disulfide 5-8)
12.1	CC(C)[C@@H](NC(=O)[C@@H](Cc1c[nH]c2ccccc12)NC(=O)[C@H](NC(=O)[C@@H](Cc1c[nH]c2ccccc12)NC(=O)[C@H]1CSSC[C@@H](NC(=O)[C@@H](CCCCN)NC(=O)[C@H](N)CCCNC(=N)N)C(=O)N[C@H](CCC(N)=O)C(=O)N[C@@H](CCC(N)=O)C(=O)N1)[C@H](C)O)C(N)=O [(114)] (H-[dR][dK][dC][dQ]Q[dC][dW][dT][dW][dV]-NH2; disulfide 3-6)
7.7	CC(C)[C@@H](NC(=O)[C@@H](Cc1c[nH]c2ccccc12)NC(=O)[C@H](NC(=O)[C@@H](Cc1ccc2ccccc2c1)NC(=O)[C@H]1CSSC[C@@H](NC(=O)[C@@H](CCCCN)NC(=O)[C@H](N)CCCNC(=N)N)C(=O)NCC(=O)N[C@@H](Cc2ccccc2)C(=O)N1)[C@H](C)O)C(N)=O [(51)] (H-[dR][dK][dC]GF[dC][d2Nal][dT][dW][dV]-NH2; disulfide 3-6)
0.7	CC(C)[C@@H](NC(=O)[C@@H](Cc1c[nH]c2ccccc12)NC(=O)[C@H](NC(=O)[C@@H](Cc1c[nH]c2ccccc12)NC(=O)[C@@H]1CSSC[C@H](NC(=O)[C@@H](CCCCN)NC(=O)[C@H](N)CCCNC(=N)N)C(=O)NCC(=O)NCC(=O)N1)[C@H](C)O)C(N)=O [(113)] (H-[dR][dK]CGGC[dW][dT][dW][dV]-NH2; disulfide 3-6)

Source: US5753617A, “Peptide inhibitors of cellular adhesion” (Centocor, Inc., priority 1995, dated 1998)
